Data taken from ChEMBL document CHEMBL4673259, “Discovery of isoquinolinone and naphthyridinone-based inhibitors of poly(ADP-ribose) polymerase-1 (PARP1) as anticancer agents: Structure activity relationship and preclinical characterization” (Bioorg Med Chem, 2020).

Key:
[1] = target: T1, Poly [ADP-ribose] polymerase 1 (Homo sapiens, UniProt P09874); assay: Inhibition of N-terminal GST-tagged human full length PARP1 (2 to 1041 residues) expressed in baculovirus infected Sf9 cells using histone mixture (H2A and H2B) and biotinylated NAD+ as substrate in presence of activated DNA incubated for 60 mins by chemiluminescence assay
T1 sequence (P09874 whole entry, the tested form may be a part): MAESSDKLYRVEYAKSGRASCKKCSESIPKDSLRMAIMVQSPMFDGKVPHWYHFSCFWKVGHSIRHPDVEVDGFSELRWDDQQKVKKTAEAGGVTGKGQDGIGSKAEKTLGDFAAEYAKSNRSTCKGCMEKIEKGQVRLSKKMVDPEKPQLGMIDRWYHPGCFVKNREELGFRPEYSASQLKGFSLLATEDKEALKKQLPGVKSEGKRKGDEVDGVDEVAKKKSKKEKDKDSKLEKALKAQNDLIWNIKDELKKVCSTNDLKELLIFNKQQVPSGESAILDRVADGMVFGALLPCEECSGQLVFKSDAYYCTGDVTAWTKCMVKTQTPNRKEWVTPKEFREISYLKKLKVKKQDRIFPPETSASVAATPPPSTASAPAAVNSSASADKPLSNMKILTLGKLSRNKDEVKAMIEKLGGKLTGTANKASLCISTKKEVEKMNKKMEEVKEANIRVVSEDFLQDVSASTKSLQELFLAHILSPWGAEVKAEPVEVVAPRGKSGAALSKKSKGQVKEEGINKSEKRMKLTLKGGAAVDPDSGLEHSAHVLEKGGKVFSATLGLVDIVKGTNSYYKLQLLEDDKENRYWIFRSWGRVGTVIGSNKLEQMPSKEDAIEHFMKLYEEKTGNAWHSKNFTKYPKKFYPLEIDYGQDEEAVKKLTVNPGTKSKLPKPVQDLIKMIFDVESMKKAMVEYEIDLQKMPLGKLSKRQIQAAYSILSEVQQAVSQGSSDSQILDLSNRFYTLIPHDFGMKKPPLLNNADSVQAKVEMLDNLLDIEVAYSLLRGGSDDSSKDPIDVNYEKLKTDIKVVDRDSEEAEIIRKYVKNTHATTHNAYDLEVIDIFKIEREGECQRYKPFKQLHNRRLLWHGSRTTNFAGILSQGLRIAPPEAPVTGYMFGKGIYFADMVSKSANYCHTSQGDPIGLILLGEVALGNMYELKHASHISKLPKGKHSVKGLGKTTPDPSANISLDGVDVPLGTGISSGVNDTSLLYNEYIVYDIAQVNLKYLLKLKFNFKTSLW

[2] = target: Poly [ADP-ribose] polymerase 2 (Homo sapiens, UniProt Q9UGN5); assay: Inhibition of N-terminal GST-tagged human PARP2 (2 to 583 residues) expressed in baculovirus infected Sf9 cells using histone mixture (H2A and H2B) and biotinylated NAD+ as substrate in presence of activated DNA incubated for 60 mins by chemiluminescence assay
Poly [ADP-ribose] polymerase 2, sequence (Q9UGN5 whole entry, the tested form may be a part): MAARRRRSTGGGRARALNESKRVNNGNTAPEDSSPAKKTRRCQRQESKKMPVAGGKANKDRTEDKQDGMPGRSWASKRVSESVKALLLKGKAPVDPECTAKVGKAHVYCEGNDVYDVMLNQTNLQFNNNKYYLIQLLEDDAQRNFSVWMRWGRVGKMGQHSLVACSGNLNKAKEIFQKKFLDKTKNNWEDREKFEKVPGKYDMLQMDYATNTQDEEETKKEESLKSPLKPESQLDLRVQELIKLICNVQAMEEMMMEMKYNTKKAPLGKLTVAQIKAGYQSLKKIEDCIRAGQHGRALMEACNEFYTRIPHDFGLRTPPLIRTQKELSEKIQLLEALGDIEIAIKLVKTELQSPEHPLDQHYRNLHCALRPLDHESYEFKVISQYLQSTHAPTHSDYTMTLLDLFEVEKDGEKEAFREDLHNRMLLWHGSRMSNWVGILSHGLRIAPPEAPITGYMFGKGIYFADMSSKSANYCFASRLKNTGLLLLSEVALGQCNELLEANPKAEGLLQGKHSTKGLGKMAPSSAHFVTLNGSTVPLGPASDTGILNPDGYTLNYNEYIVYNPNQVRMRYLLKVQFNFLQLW

[3] = target: T1, Poly [ADP-ribose] polymerase 1; assay: Inhibition of PARP1 in human MDA-MB-436 cells assessed as inhibition of PARylation at 10 nM incubated for 1 hr by chemiluminescence assay; type: cell-based
MDA-MB-436 [4] = assay: Cytotoxicity against human MDA-MB-436 cells assessed as inhibition of cell viability incubated for 4 days by CellTiterGlo luminescence assay; conditions: MDA-MB-436, 96 h
MDA-MB-436 [5] = assay: Cytotoxicity against human MDA-MB-436 cells assessed as inhibition of cell viability incubated for 14 days with three intermittent intervals by CellTiterGlo luminescence assay; conditions: MDA-MB-436, 336 h
[6] = Tmax in BALB/c mouse at 1 mg/kg, iv measured up to 24 hrs by LC-MS/MS analysis; type: ADME, organism-based; conditions: in vivo
[7] = Tmax in BALB/c mouse at 10 mg/kg, po measured up to 24 hrs by LC-MS/MS analysis; type: ADME, organism-based; conditions: in vivo
[8] = Cmax in BALB/c mouse at 1 mg/kg, iv measured up to 24 hrs by LC-MS/MS analysis; type: ADME, organism-based; set-up: route intravenous, dose 1 mg/kg, time <=24; conditions: in vivo
[9] = Cmax in BALB/c mouse at 10 mg/kg, po measured up to 24 hrs by LC-MS/MS analysis; type: ADME, organism-based; set-up: route oral, dose 10 mg/kg, time <=24; conditions: in vivo
[10] = AUClast in BALB/c mouse at 1 mg/kg, iv measured up to 24 hrs by LC-MS/MS analysis; type: ADME, organism-based; set-up: route intravenous, dose 1 mg/kg, time <=24; conditions: in vivo
[11] = AUClast in BALB/c mouse at 10 mg/kg, po measured up to 24 hrs by LC-MS/MS analysis; type: ADME, organism-based; set-up: route oral, dose 10 mg/kg, time <=24; conditions: in vivo
[12] = Half life in BALB/c mouse at 1 mg/kg, iv measured up to 24 hrs by LC-MS/MS analysis; type: ADME, organism-based; conditions: in vivo
[13] = Clearance in BALB/c mouse at 1 mg/kg, iv measured up to 24 hrs by LC-MS/MS analysis; type: ADME, organism-based; conditions: in vivo
[14] = Volume of distribution at steady state in BALB/c mouse at 1 mg/kg, iv measured up to 24 hrs by LC-MS/MS analysis; type: ADME, organism-based; conditions: in vivo, read-out: Vdss
[15] = Oral bioavailability in BALB/c mouse at 10 mg/kg measured up to 24 hrs by LC-MS/MS analysis; type: ADME, organism-based; conditions: in vivo
MCF7 = assay: Cytotoxicity against human MCF7 cells harboring wild type BRCA at 1000 nM relative to control; type: cell-based; conditions: mcf7, 1 µM
HEK293 [16] = assay: Cytotoxicity against HEK293 cells at 1000 nM relative to control; type: cell-based; conditions: human, hek293, 1 µM
MDA-MB-436 [17] = assay: Anticancer activity against human MDA-MB-436 cells harboring BRCA mutant xenografted in SCID/nude mouse assessed as tumor growth regression at 1.5 mg/kg, po bid and measured up to 5 weeks post-drug administration; type: functional; conditions: MDA-MB-436, po, 840 h, time weeks <=5
MDA-MB-436 [18] = assay: Potentiation of anticancer activity against human MDA-MB-436 cells harboring BRCA mutant xenografted in SCID/nude mouse assessed as tumor growth inhibition at 3 mg/kg, po bid for 12 days co-administered with TMZ measured up to 9 weeks post-drug administration; type: functional; conditions: MDA-MB-436, po, 288 h, time 12 day
CAPAN-1 = assay: Potentiation of anticancer activity against human CAPAN-1 cells harboring BRCA mutant xenografted in SCID/nude mouse assessed as tumor growth inhibition at 3 mg/kg, po bid for 12 days co-administered with TMZ measured up to 9 weeks post-drug administration; type: functional; conditions: CAPAN-1, po, 288 h, time 12 day
SK-ES1 = assay: Potentiation of anticancer activity against human SK-ES-1 cells harboring EWSF1 translocation xenografted in SCID/nude mouse assessed as tumor growth inhibition at 3 mg/kg, po bid for 12 days co-administered with TMZ measured up to 9 weeks post drug administration; type: functional; conditions: 288 h, time 12 day
MDA-MB-436 [19] = assay: Anticancer activity against human MDA-MB-436 cells harboring BRCA mutant xenografted in SCID/nude mouse assessed as tumor growth regression at 50 mg/kg, po bid and measured up to 5 weeks post-drug administration; type: functional; conditions: MDA-MB-436, po, 840 h, time weeks <=5
[20] = Toxicity in SCID/nude mouse xenografted with human MDA-MB-436 cells harboring BRCA mutant assessed as body weight loss at 50 mg/kg, po bid; type: organism-based; conditions: in vivo
HEK293 [21] = assay: Cytotoxicity against HEK293 cells assessed as inhibition of cell viability; type: cell-based; conditions: human
MDA-MB-436 [22] = assay: Anticancer activity against human MDA-MB-436 cells harboring BRCA mutant xenografted in SCID/nude mouse assessed as tumor growth regression at 0.15 mg/kg, po bid and measured up to 5 weeks post-drug administration; type: functional; conditions: MDA-MB-436, po, 840 h, time weeks <=5
[23] = Toxicity in SCID/nude mouse xenografted with human MDA-MB-436 cells harboring BRCA mutant assessed as body weight loss at 0.15 mg/kg, po bid; type: organism-based; conditions: in vivo
[24] = Toxicity against SCID/nude mouse xenografted with human MDA-MB-436 cells harboring BRCA mutant assessed as body weight loss at 0.15 mg/kg, po bid for 12 days co-administered with 35 mg/kg, po TMZ; type: organism-based; conditions: in vivo, 288 h, time 12 day
[25] = Toxicity against SCID/nude mouse xenografted with human CAPAN-1 cells harboring BRCA mutant assessed as body weight loss at 0.15 mg/kg, po bid for 12 days co-administered with 35 mg/kg, po TMZ; type: organism-based; conditions: in vivo, 288 h, time 12 day
[26] = Toxicity against SCID/nude mouse xenografted with human SK-ES-1 cells harboring EWSF1 translocation assessed as body weight loss at 0.15 mg/kg, po bid for 12 days co-administered with 35 mg/kg, po TMZ; type: organism-based; conditions: in vivo, 288 h, time 12 day
[27] = Toxicity against SCID/nude mouse xenografted with human MDA-MB-436 cells harboring BRCA mutant assessed as hypothermia at 0.15 mg/kg, po bid for 12 days co-administered with 35 mg/kg, po TMZ; type: organism-based; conditions: in vivo, 288 h, time 12 day
[28] = Toxicity against SCID/nude mouse xenografted with human CAPAN-1 cells harboring BRCA mutant assessed as hypothermia at 0.15 mg/kg, po bid for 12 days co-administered with 35 mg/kg, po TMZ; type: organism-based; conditions: in vivo, 288 h, time 12 day
[29] = Toxicity against SCID/nude mouse xenografted with human SK-ES-1 cells harboring EWSF1 translocation assessed as hypothermia at 0.15 mg/kg, po bid for 12 days co-administered with 35 mg/kg, po TMZ; type: organism-based; conditions: in vivo, 288 h, time 12 day
[30] = Toxicity against SCID/nude mouse xenografted with human MDA-MB-436 cells harboring BRCA mutant assessed as body weight loss at 0.15 mg/kg, po bid for 12 days co-administered with lower dose of TMZ; type: organism-based; conditions: in vivo, 288 h, time 12 day
[31] = Toxicity against SCID/nude mouse xenografted with human CAPAN-1 cells harboring BRCA mutant assessed as body weight loss at 0.15 mg/kg, po bid for 12 days co-administered with lower dose of TMZ; type: organism-based; conditions: in vivo, 288 h, time 12 day
[32] = Toxicity against SCID/nude mouse xenografted with human SK-ES-1 cells harboring EWSF1 translocation assessed as body weight loss at 0.15 mg/kg, po bid for 12 days co-administered with lower dose of TMZ; type: organism-based; conditions: in vivo, 288 h, time 12 day

Row | SMILES | IC50 [1] | IC50 [2] | inhibition [3] | IC50 (MDA-MB-436 [4]) | IC50 (MDA-MB-436 [5]) | also measured
1 | N#Cc1ccc(N2CCN([C@H]3C=C(c4cc5c(N)cc(F)cc5c(=O)[nH]4)CC3)CC2)cc1 | 1 nM | 1.3 nM | 92% | 0.073 nM | 0.0016 nM | Tmax [6]: 4.8 min; Tmax [7]: 15 min; Cmax [8]: 11 µM; Cmax [9]: 19 µM; AUC(0-t) at 24 h [10]: 18 µM·h; AUC(0-t) at 24 h [11]: 106 µM·h; half-life [12]: 132 min; clearance [13]: 2.2 mL/min/kg; Vd [14]: 0.4 L/kg; bioavailability [15]: 59%; Activity (MCF7): 36%; Activity (HEK293 [16]): 65%; inhibition in vivo at 1.5 mg/kg (MDA-MB-436 [17]): 94%
2 | CNCc1ccc(-c2[nH]c3cc(F)cc4c3c2CCNC4=O)cc1 [RUCAPARIB] |  |  |  |  |  | inhibition in vivo at 3 mg/kg (MDA-MB-436 [18]): 95%; inhibition in vivo at 3 mg/kg (CAPAN-1): 46%; inhibition in vivo at 3 mg/kg (SK-ES1): 20.6%
3 | N#Cc1ccc(N2CCN([C@H]3C=C(c4cc5c(N)cccc5c(=O)[nH]4)CC3)CC2)cc1 | 0.6 nM | 1.5 nM | 92% | 0.109 nM | 0.005 nM | 
4 | N#Cc1ccc(N2CCN([C@@H]3C=C(c4cc5c(N)cc(F)cc5c(=O)[nH]4)CC3)CC2)cc1 | 5 nM | 200 nM | 40% |  |  | 
5 | Nc1cc(F)cc2c(=O)[nH]c(CCCN3CCN(c4ccc(F)cc4)CC3)cc12 | 0.9 nM | 9.5 nM | 68% | 1.13 nM | 0.05 nM | 
6 | N#Cc1ccc(N2CCN([C@@H]3C=C(c4cc5c(N)cc(F)cc5c(=O)[nH]4)CC3)CC2)c(F)c1 | 5.6 nM | 58 nM |  |  |  | 
7 | O=C(c1cc(Cc2n[nH]c(=O)c3ccccc23)ccc1F)N1CCN(C(=O)C2CC2)CC1 [OLAPARIB] |  |  |  |  |  | inhibition in vivo at 50 mg/kg (MDA-MB-436 [19]): 40%; Activity [20]: 10%; inhibition in vivo at 3 mg/kg (MDA-MB-436 [18]): 39%; inhibition in vivo at 3 mg/kg (CAPAN-1): 49%; inhibition in vivo at 3 mg/kg (SK-ES1): 39.5%
8 | N#Cc1ccc(N2CCN(CCCc3cc4c(N)cc(F)cc4c(=O)[nH]3)CC2)cc1 | 0.6 nM | 3.9 nM | 86% | 0.015 nM | 0.0006 nM | Tmax [6]: 4.8 min; Tmax [7]: 15 min; Cmax [8]: 3.7 µM; Cmax [9]: 1.5 µM; AUC(0-t) at 24 h [10]: 2.4 µM·h; AUC(0-t) at 24 h [11]: 1.9 µM·h; half-life [12]: 66 min; clearance [13]: 17 mL/min/kg; Vd [14]: 0.8 L/kg; bioavailability [15]: 8%; Activity (MCF7): 23%; Activity (HEK293 [21]): Non-Toxic; inhibition in vivo at 1.5 mg/kg (MDA-MB-436 [17]): 29%
9 | N#Cc1ccc(N2CCN([C@@H]3C=C(c4cc5c(N)cccc5c(=O)[nH]4)CC3)CC2)cc1 | 2.5 nM | 167 nM | 83% |  |  | 
10 | Cn1ncnc1[C@H]1c2n[nH]c(=O)c3cc(F)cc(c23)N[C@@H]1c1ccc(F)cc1 [TALAZOPARIB] |  |  | 91% |  |  | Activity (MCF7): 98%; Activity (HEK293 [16]): 95%; inhibition in vivo at 0.15 mg/kg (MDA-MB-436 [22]): 65%; Activity [23]: 10%; Activity [24]: Toxic; Activity [25]: Toxic; Activity [26]: Toxic; Activity [27]: Toxic; Activity [28]: Toxic; Activity [29]: Toxic; Activity [30]: Non-Toxic; Activity [31]: Non-Toxic; Activity [32]: Non-Toxic

The remaining compounds from weak to strong by IC50 [1], led by results:

Row | IC50 [1] | IC50 [2] | inhibition [3] | SMILES | IC50 (MDA-MB-436 [4]) | IC50 (MDA-MB-436 [5]) | also measured
11 | 1 nM | 16.6 nM | 92% | N#Cc1ccc(N2CCN([C@H]3C=C(c4cc5ncccc5c(=O)[nH]4)CC3)CC2)nc1 | 1.1 nM | 0.05 nM | 
12 | 0.9 nM | 2.6 nM | 89% | N#Cc1ccc(N2CCN([C@H]3C=C(c4cc5c(N)cc(F)cc5c(=O)[nH]4)CC3)CC2)c(F)c1 | 0.06 nM | 0.05 nM | 
13 | 0.9 nM | 26.9 nM | 91% | N#Cc1ccc(N2CCN([C@H]3C=C(c4cc5ncc(F)cc5c(=O)[nH]4)CC3)CC2)cc1 | 0.17 nM | 0.007 nM | 
14 | 0.8 nM | 10.8 nM | 62% | CNC(=O)c1ccc(N2CCN(CCCc3cc4c(N)cc(F)cc4c(=O)[nH]3)CC2)cc1 | 0.35 nM | 0.01 nM | 
15 | 0.6 nM | 7.2 nM | 93% | N#Cc1ccc(N2CCN(CCCc3cc4c(N)cccc4c(=O)[nH]3)CC2)cc1 | 0.02 nM | 0.001 nM | 
16 | 0.4 nM | 4.6 nM | 54% | NC(=O)c1ccc(N2CCN(CCCc3cc4c(N)cc(F)cc4c(=O)[nH]3)CC2)cc1 | 1.48 nM | 0.33 nM | 
